# From patent US7125964B2, “Purification of antigen-specific T cells” (Ortho-McNeil Pharmaceutical, Inc., priority 1996, dated 2006)
# Read-outs that look alike come from different tables or passages of the source.
# T1: L^d (Mus musculus, UniProt P01897)
# T1 sequence (P01897 25-298 limits assumed): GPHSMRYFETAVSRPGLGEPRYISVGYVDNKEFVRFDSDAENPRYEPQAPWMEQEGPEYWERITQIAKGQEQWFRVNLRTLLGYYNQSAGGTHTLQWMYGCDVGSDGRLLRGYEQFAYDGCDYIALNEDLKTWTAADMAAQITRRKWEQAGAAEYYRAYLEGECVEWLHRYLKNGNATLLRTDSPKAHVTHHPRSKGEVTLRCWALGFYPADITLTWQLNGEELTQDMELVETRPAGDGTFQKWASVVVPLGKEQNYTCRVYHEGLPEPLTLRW
# T1 sequence (P01887 21-119 partner): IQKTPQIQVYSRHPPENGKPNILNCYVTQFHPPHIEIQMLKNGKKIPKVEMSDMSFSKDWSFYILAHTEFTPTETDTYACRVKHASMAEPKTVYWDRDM
# Legend:
# 2C T cells [1] = assay: Cell-bead complex formation, flow cytofluorometry, green versus red fluorescence dot plots; assay type: cell-based, mouse; conditions: L^d-coated beads, 20 μM peptide
# [2] = biological target: 2C T cell receptor (2C TCR) on naive T cells purified from 2C TCR transgenic mice (mouse); assay: fluorescein-labeled 2C T cells with phycoerythrin-labeled L^d-coated beads, flow cytofluorometry, green versus red dot plots
# [3] = biological target: 2C T cell receptor (2C TCR) on naive T cells purified from 2C TCR transgenic mice (mouse); assay: 2C T cells with MHC-coated magnetic beads, 4 h, flow cytofluorometry, forward versus side scatter
# [4] = biological target: 2C T cell receptor (2C TCR) on naive T cells purified from 2C TCR transgenic mice (mouse); assay: 2C T cells mixed with CD8+ T cells of naive B6 mouse (0.03%), adsorption on MHC class I-coated magnetic beads, 2 experiments
# [5] = biological target: 2C T cell receptor (2C TCR) on naive T cells purified from 2C TCR transgenic mice (mouse); assay: 2C T cells with MHC-coated magnetic beads, flow cytofluorometry, forward versus side scatter
# [6] = biological target: 2C T cell receptor (2C TCR) on naive T cells purified from 2C TCR transgenic mice (mouse); assay: fluorescein-labeled 2C T cells with phycoerythrin-labeled L^d-coated beads, flow cytofluorometry, green versus red dot plots; laid by the filing to non-specific adsorption of cell debris
# 2C TCR = conditions: association constant, cited from earlier work; for 2C TCR affinity for L^d-peptide: Sykulev et al, 1994 a, b; for affinity of peptide-MHC complex for the 2C TCR: recently determined
# L^d = biological target: T1, L^d; conditions: association constant; cited from earlier work
# [7] = biological target: 2C T cell receptor (2C TCR) on naive T cells purified from 2C TCR transgenic mice (mouse); assay: 2C T cells mixed with CD8+ T cells of naive B6 mouse (0.03%), adsorption on MHC class I-coated magnetic beads, 3 experiments
# 2C T cells [8] = assay: Influence of temperature and CD8 on cell-bead complex formation, flow cytofluorometry; assay type: cell-based, mouse; conditions: for CD8 dependence of cell capture: purified 2C T cells versus CD8^− 2C T cells, room temperature, 3 hours
# Experimental: We used flow cytofluorometry analysis to quantitate the influence of various parameters on cell-bead complex formation. Attachment of cells to beads was time dependent. […] Kinetics of adsorption were remarkably parallel for various peptide-MHC complexes. At 4° C., only a small percentage of cells was captured on beads, even after prolonged incubation. […] ([…], 1996).
# 2C T cells [9] = assay: Recovery of 2C T cells mixed with CD8^+ T cells from naive C57BL/6 mouse by adsorption on MHC class I-coated magnetic beads; assay type: cell-based; conditions: for % 2C T cell after enrichment: 0.03% 2C T cells before enrichment
# Experimental: T cell precursor frequencies in a naive animal are typically low. Magnetic beads have been found suitable in other systems to enrich low frequency cell populations (Sawada et al., 1990; Kato and Radbruch, 1993). To assess whether MHC class I-coated magnetic beads could be used for T cell precursor enrichment, we mixed fluorescein-labeled 2C T cells with CD8^+ T cells purified from naive C57BL/6 mice. After incubation with MHC-coated magnetic beads in the presence of peptide, adsorbed cells were eluted and counted, and the percentage of 2C T cells was determined by flow cytofluorometry. In the experiment shown in FIG. 5, 2C T cells were undetectable at the initial frequency of 0.03%. Following adsorption using K^bm3-coated beads and dEV-8 peptide, a definite peak of green fluorescence was observed, displaying the same intensity as the original fluorescein-stained 2C T cell population. This peak represented 65.1% of the eluted cells. No peak was observed when a control peptide was used instead of dEV-8. […] In all cases, the non-fluorescent cells in the eluted population represented only a minor fraction of the initial cell population (˜0.2%).
# 2C T cells [10] = assay: Cell-bead complex formation, flow cytofluorometry, side scatter versus forward scatter dot plots; assay type: cell-based, mouse; conditions: 4 hours of incubation
# 2C T cells [11] = assay: Capture of 2C T cells on MHC-coated magnetic beads, microscopic examination; assay type: cell-based, mouse; conditions: readout not stated
# [12] = biological target: 2C T cell receptor (2C TCR) on naive T cells purified from 2C TCR transgenic mice (mouse); assay: 2C T cells with MHC-coated magnetic beads, flow cytofluorometry, temperature dependence
# EL4 cells = assay type: cell-based, mouse
molecule,measurement,setting,value
RPQASGVYM [LCMV],percentage of cells complexed to beads (RG/G+RG),2C T cells [1],2.2%
L^d-SL9 complex on avidin-coated magnetic beads (from UniProt P01887 21-119; P01897 25-362) (peptide-MHC),% of cells complexed to beads,[2],> 85%
K^bm3-dEV-8 complex on avidin-coated magnetic beads (from UniProt P01887 21-119) (peptide-MHC),% of cells adsorbed to beads,[3],63.8%
same,2C T cell recovery,[4],47.7%
L^d-LCMV complex on avidin-coated magnetic beads (from UniProt P01887 21-119; P01897 25-362) (peptide-MHC),% of events in the complex region,[5],2.6%
same,% red and green colored events,[6],2.2%
"YPHFMPTNL [MCMV, ID; NO.: 8]",2C TCR affinity for L^d-peptide,2C TCR,<10^3 M^−1
same,Peptide affinity for L^d,L^d,2e+09 M⁻¹
L^d-QL9 complex on avidin-coated magnetic beads (from UniProt P01887 21-119; P01897 25-362) (peptide-MHC),% of cells adsorbed to beads,[3],91%
same,2C T cell recovery,[7],90%
same,% of cells complexed to beads,[2],> 85%
L^d-QL9: complex of MHC class I molecule L^d with peptide QL9,CD8 dependence of cell capture,2C T cells [8],largely CD8 independent
"EQYKFYSV [dEV-8, ID; NO.: 5]",CD8 dependence of cell capture,2C T cells [8],most CD8-dependent
same,2C T cell enrichment,2C T cells [9]; K^bm3-coated beads,1697 ± 473 fold
same,% 2C T cell after enrichment,2C T cells [9]; K^bm3-coated beads,50.9 ± 14.2%
same,percentage of cells adsorbed to beads (CO/CO+CE),2C T cells [10]; K^bm3-coated beads,63.8%
QLSPFPFDL [QL9],CD8 dependence of cell capture,2C T cells [8],CD8 independent
same,2C TCR affinity for L^d-peptide,2C TCR,10^7 M^−1
same,2C T cell enrichment,2C T cells [9]; L^d-coated beads,828 ± 230 fold
same,% 2C T cell after enrichment,2C T cells [9]; L^d-coated beads,24.8 ± 6.9%
same,Peptide affinity for L^d,L^d,2e+08 M⁻¹
same,percentage of cells adsorbed to beads (CO/CO+CE),2C T cells [10]; L^d-coated beads,91.0%
L^d-SL9: complex of L^d with peptide SL9,affinity of peptide-MHC complex for the 2C TCR,2C TCR,14000 M⁻¹
L^d-p2Ca-A3: complex of L^d with peptide p2Ca-A3,affinity of peptide-MHC complex for the 2C TCR,2C TCR,20000 M⁻¹
same,capture of 2C T cells observed or not,2C T cells [11],not
SIYRYYGL,CD8 dependence of cell capture,2C T cells [8],CD8 independent
same,2C T cell enrichment,2C T cells [9]; K^b-coated beads,1588 ± 71 fold
same,% 2C T cell after enrichment,2C T cells [9]; K^b-coated beads,47.6 ± 2.1%
same,percentage of cells adsorbed to beads (CO/CO+CE),2C T cells [10]; K^b-coated beads,75.7%
K^b-SIYR complex on avidin-coated magnetic beads (from UniProt P01887 21-119; P01901 22-369) (peptide-MHC),% of cells adsorbed to beads,[3],75.7%
same,2C T cell recovery,[4],56.8%
L^d-p2Ca: complex of L^d with peptide p2Ca,attachment levels at 37° C. relative to values measured at room temperature,2C T cells [8]; 37° C. versus room temperature,about 25%
same,CD8 dependence of cell capture,2C T cells [8],exhibited CD8 dependence
L^d-p2Ca complex on avidin-coated magnetic beads (from UniProt P01887 21-119; P01897 25-362) (peptide-MHC),attachment level at 37° C. against the value at room temperature,[12],25%
same,% of cells adsorbed to beads,[3],78.9%
same,% of cells complexed to beads,[2],> 85%
K^b-SIYR: complex of K^b with peptide SIYR,affinity of peptide-MHC complex for the 2C TCR,2C TCR,31000 M⁻¹
same,capture of 2C T cells observed or not,2C T cells [11],consistently observed capture
K^b-dEV-8: complex of K^b with peptide dEV-8,affinity of peptide-MHC complex for the 2C TCR,2C TCR,12000 M⁻¹
same,capture of 2C T cells observed or not,2C T cells [11],not
RGYVYQGL [VSV-8],CTL activity of cells captured and cultured with the same peptide,EL4 cells,displayed a CTL activity specific for VSV-8
same,CTL precursors for the other peptide in captured cells,EL4 cells,no detectable anti-OVA-8 CTL precursors
LSPFPFDL [p2Ca],CD8 dependence of cell capture,2C T cells [8],most CD8-dependent
same,2C TCR affinity for L^d-peptide,2C TCR,2e+06 M⁻¹
same,Peptide affinity for L^d,L^d,4e+06 M⁻¹
same,percentage of cells adsorbed to beads (CO/CO+CE),2C T cells [10]; L^d-coated beads,78.9%
"SPFPFDLLL [SL9, ID; NO.: 3]",2C TCR affinity for L^d-peptide,2C TCR,14000 M⁻¹
same,Peptide affinity for L^d,L^d,4e+07 M⁻¹
"SIINFEKL [OVA-8, ID; NO.: 9]",CTL activity of cells captured and cultured with the same peptide,"EL4 cells; K^b-coated beads, naive C57BL/6 CD8^+ T cells, tested at day 18, peptides 1 μM",displayed a CTL activity specific for OVA-8 peptide
same,CTL precursors for the other peptide in captured cells,"EL4 cells; reverse combination: captured with one peptide, activated in culture with the other",no detectable anti-VSV-8 CTL precursors
K^b-E1: non-2C reactive complex of K^b with peptide E1 (protein) MHC heavy: GPHSLRYFVTAVSRPGLGEPRYMEVGYVDDTEFVRFDSDAENPRYEPRARWMEQEGPEYWERETQKAKGNEQSFRVDLRTLLGYYNQSKGGSHTIQVISGCEVGSDGRLLRGYQQYAYDGCDYIALNEDLKTWTAADMAALITKHKWEQAGEAERLRAYLEGTCVEWLRRYLKNGNATLLRTDSPKAHVTHHSRPEDKVTLRCWALGFYPADITLTWQLNGEELIQDMELVETRPAGDGTFQKWASVVVPLGKEQYYTCHVYHQGLPEPLTLRWEPPPSTVSNMATVAVLVVLGAAIVTGAVVAFVMKMRRRNTGGKGGDYALAPGSQTSDLSLPDCKVMVHDPHSLA b2m: IQKTPQIQVYSRHPPENGKPNILNCYVTQFHPPHIEIQMLKNGKKIPKVEMSDMSFSKDWSFYILAHTEFTPTETDTYACRVKHASMAEPKTVYWDRDM peptide: EIINFEKL,percentage of cells adsorbed to beads (CO/CO+CE),2C T cells [10]; K^b-coated beads,0.2%
